Article PMC6429183, “Identification of Compounds That Inhibit Estrogen-Related Receptor Alpha Signaling Using High-Throughput Screening Assays” (Molecules, 2019)
Where “and” joins values, the source holds several entries; their conditions need not be identical. Equal entries are not always repeated. Where two headings read alike, the source gives them in different places.

What was measured:
[1] = biological target: T1, ERRα with PGC-1α (PGC/ERR pathway) (Homo sapiens, UniProt P11474); experiment: PGC/ERR reporter (luciferase) qHTS assay, PGC/ERR-HEK293; conditions: for EC50: mean ± SD, triplicate; for PGC/ERR-HEK293 Follow-Up Efficacy: follow-up screen; for PGC/ERR-HEK293 Follow-Up Efficacy / PGC/ERR-HEK293 Primary Efficacy: negative = antagonism, positive = agonism; for activity in the ERR/PGC assay: in words; for PGC/ERR-HEK293 Primary Efficacy: primary qHTS
T1 sequence (P11474 1-423): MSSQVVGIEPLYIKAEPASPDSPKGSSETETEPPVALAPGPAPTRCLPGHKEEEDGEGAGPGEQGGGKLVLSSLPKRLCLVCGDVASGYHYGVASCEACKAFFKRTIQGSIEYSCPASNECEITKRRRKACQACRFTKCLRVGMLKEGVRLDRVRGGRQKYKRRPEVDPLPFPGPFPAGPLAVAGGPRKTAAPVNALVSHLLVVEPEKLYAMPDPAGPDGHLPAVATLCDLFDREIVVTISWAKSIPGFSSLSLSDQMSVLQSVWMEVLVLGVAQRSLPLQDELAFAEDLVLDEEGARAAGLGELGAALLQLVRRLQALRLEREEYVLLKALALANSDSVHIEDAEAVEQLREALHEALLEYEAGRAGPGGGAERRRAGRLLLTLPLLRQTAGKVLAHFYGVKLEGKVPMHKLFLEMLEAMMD
Experimental: (§2) The ERR reporter HEK293 cells were cultured in high glucose DMEM medium (ThermoFisher Scientific, Inc., Waltham, MA, USA) supplemented with 10% fetal bovine serum (FBS; ThermoFisher Scientific, Inc.), 4 mM of L-glutamine (ThermoFisher Scientific, Inc.), 1 mM of sodium pyruvate (ThermoFisher Scientific, Inc.), 100 U/mL of penicillin and 100 mg/mL of streptomycin (ThermoFisher Scientific, Inc.). PGC/ERR reporter HEK293 cells were cultured in the same medium as the ERR reporter HEK293 cells with an additional 1 μg/mL puromycin (ThermoFisher Scientific, Inc.) as the selection marker for PGC-1α expression.
(§3) ERR or PGC/ERR reporter HEK293 cells suspended in culture medium without puromycin were dispensed at 2500 cells/5 μL/well in tissue culture–treated 1536-well white assay plates (Greiner Bio-One North America, Monroe, NC, USA) using a Thermo Scientific Multidrop Combi (ThermoFisher Scientific, Inc.). […] After the cells were incubated at 37 °C with 5% CO2 for 6 h, 23 nL of compounds or control, XTC790, was transferred into the assay plates using a Wako Pintool station (Wako Automation, San Diego, CA, USA). The assay plates were incubated at 37 °C for 18 h, followed by the addition of 5 μL ONE-Glo luciferase reagent (Promega, Madison, WI, USA) using a Flying Reagent Dispenser (Aurora Discovery, Carlsbad, CA, USA). After 30 min of incubation at room temperature, the luminescence intensity of the assay plates was quantified using a ViewLux plate reader (PerkinElmer, Shelton, CT, USA). The assays were performed three times for each compound concentration. These ERR and PGC/ERR reporter assays were multiplexed with the CellTiter-Fluor Cell Viability Assay (Promega), a fluorescence-based cell viability assay, to assess compound cytotoxicity.
(§4) The DMSO-only compound plates at the beginning and end of the compound plate stack were used to correct the data set by applying an in-house pattern correction algorithm [90]. The half maximum inhibition values (IC50) for each compound and maximum response (efficacy) values were obtained by fitting the concentration-response curves of each compound to a four-parameter Hill equation [91]. […] For each reading, the activity outcome of a test compound was first categorized by the average curve rank from the triplicate runs and the reproducibility calls. The final activity outcome of each compound was based on the ERR antagonist readout activity and cell viability counter screen.

IDH3α = experiment: qRT-PCR mRNA expression of ERR downstream gene IDH3α; type: cell-based; conditions: ERR reporter cells, vs GAPDH, DMSO = 0%
Outline: (§1)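 Total RNA from compound-treated ERR reporter cells was reverse transcribed and analysed by TaqMan real-time PCR. Expression normalized to GAPDH, with fold induction versus control calculated as 2^ΔΔCt. Values are means of triplicates ± SD, t-test.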

cytochrome c = experiment: qRT-PCR mRNA expression of ERR downstream gene cytochrome c; type: cell-based; conditions: ERR reporter cells, vs GAPDH, DMSO = 0%
Outline: as §1

[2] = system: Nrf2/antioxidant response element (ARE); experiment: Nrf2/ARE-HepG2 β-lactamase reporter agonist assay; type: cell-based; conditions: agonist mode, heatmap outcome
Experimental: After the assay plates were incubated at 37 °C for 5–6 h, 23 nL of compounds dissolved in DMSO or positive controls were transferred to the assay plates via a Wako Pintool station (Wako). Except for ARE and p53, all other assays received 1 µL/well agonist (10 nM R1881 for AR; 0.5 and 5 nM β-estradiol for ERα and ERβ respectively; 300 µM CDCA for FXR; 50 nM Rosiglitazone for PPARγ; and 5 nM R5020 for PR) or assay medium using a Flying Reagent Dispenser (FRD). The assay plates were incubated for 16 h (AR, Nrf2/ARE, ERβ, FXR, p53, and PR), 17 h (PPARγ), or 18 h (ERα) at 37 °C, and 1 µL/well LiveBLAzer™ FRET-B/G CCF4-AM substrate (ThermoFisher Scientific, Inc.) detection mix was added using an FRD and the plates were incubated at room temperature for 2 h. […] Data were expressed as the ratio of 460/530 nm emission values.

COX8α = experiment: qRT-PCR mRNA expression of ERR downstream gene COX8α; type: cell-based; conditions: ERR reporter cells, vs GAPDH, DMSO = 0%
Outline: as §1

[3] = system: PGC/ERR reporter HEK293 cells; experiment: CellTiter-Fluor cell viability assay multiplexed with PGC/ERR reporter assay; type: cell-based; conditions: for EC50: Homo sapiens
[4] = system: ERR reporter HEK293 cells; experiment: CellTiter-Fluor cell viability assay multiplexed with ERR reporter assay; type: cell-based
Outline: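 ERR or PGC/ERR reporter HEK293 cells (2500/well) were plated 6 h before compound, then incubated 18 h at 37 °C, followed by ONE-Glo luciferase read after 30 min. CellTiter-Fluor was multiplexed as a cytotoxicity counter screen, in triplicate. IC50 and efficacy came from four-parameter Hill fits of pattern-corrected qHTS data.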

COX4I1 = experiment: qRT-PCR mRNA expression of ERR downstream gene COX4I1; type: cell-based; conditions: ERR reporter cells, vs GAPDH, DMSO = 0%
Experimental: Total RNA was isolated from treated ERR reporter cells using an RNeasy Mini Kit (Qiagen, Germantown, MD, USA), homogenized using a QIAshredder (Qiagen), and reverse transcribed with a High-Capacity RNA-to-cDNA™ Kit (ThermoFisher Scientific, Inc.) following the manufacturers’ instructions. Expression of ERRα, COX8α, IDH3α, PPARα, COX4I1, and cytochrome c genes was normalized against GAPDH. All primers were purchased from ThermoFisher Scientific, Inc. Real-time PCR assays were performed in 384-well plates on a QuantStudio 5 (Applied Biosystems, Foster City, CA, USA) with TaqMan™ Gene Expression Master Mix (ThermoFisher Scientific, Inc.). Induction values were calculated using the equation: Fold = 2^ΔΔCt, where ΔCt represents the differences in cycle threshold numbers between each of the target genes and GAPDH, and ΔΔCt represents the relative change in these differences between control and treatment groups. […]

[5] = biological target: T2, estrogen-related receptor alpha (ERRα) (Homo sapiens, UniProt P11474); experiment: ERR reporter (luciferase) antagonist qHTS assay, ERR-HEK293; conditions: for ERR-HEK293 Follow-Up Efficacy: follow-up screen; for ERR-HEK293 Follow-Up Efficacy / ERR-HEK293 Primary Efficacy: relative to XCT790 = −100%; for ERR-HEK293 Primary Efficacy: primary qHTS, DMSO = 0%
T2 sequence (P11474 1-423): T1 sequence (P11474 1-423)
Experimental: as §2, §3, §4

PPARα = experiment: qRT-PCR mRNA expression of ERR downstream gene PPARα; type: cell-based; conditions: ERR reporter cells, vs GAPDH, DMSO = 0%
Experimental: Total RNA was isolated from treated ERR reporter cells using an RNeasy Mini Kit (Qiagen, Germantown, MD, USA), homogenized using a QIAshredder (Qiagen), and reverse transcribed with a High-Capacity RNA-to-cDNA™ Kit (ThermoFisher Scientific, Inc.) following the manufacturers’ instructions. Expression of ERRα, COX8α, IDH3α, PPARα, COX4I1, and cytochrome c genes was normalized against GAPDH. All primers were purchased from ThermoFisher Scientific, Inc. Real-time PCR assays were performed in 384-well plates on a QuantStudio 5 (Applied Biosystems, Foster City, CA, USA) with TaqMan™ Gene Expression Master Mix (ThermoFisher Scientific, Inc.). Induction values were calculated using the equation: Fold = 2^ΔΔCt, where ΔCt represents the differences in cycle threshold numbers between each of the target genes and GAPDH, and ΔΔCt represents the relative change in these differences between control and treatment groups. Experimental data are presented as a mean of triplicate determinations ± SD.

[6] = PGC/ERR-HEK293 Follow-Up EC50, follow-up screen
[7] = PGC/ERR-HEK293 Primary EC50, primary qHTS, 18 h
[8] = ERR-HEK293 Follow-Up EC50, follow-up (confirmation) screen, mean ± SD, triplicate
[9] = ERR-HEK293 Primary EC50, primary qHTS, 18 h, 15 concentrations, mean ± SD, triplicate
[10] = HEK293, follow-up screen, read-out: PGC/ERR-HEK293 Follow-Up Viability EC50 (converted)
[11] = HEK293, primary qHTS, read-out: PGC/ERR-HEK293 Primary Viability EC50 (converted)
[12] = Homo sapiens, HEK293, follow-up screen, viability, read-out: ERR-HEK293 Follow-Up Viability EC50 (converted)
[13] = Homo sapiens, HEK293, primary qHTS, viability counter screen, read-out: ERR-HEK293 Primary Viability EC50 (converted)

Cc1nc(N)nc(N)c1-c1ccc(Cl)c(Cl)c1 [Methodichlorophen]
EC50 [1, 6]: 1570 ± 354 nM | EC50 [1, 7]: 845 ± 97.1 nM | PGC/ERR-HEK293 Follow-Up Efficacy [1]: −61.5 ± 12.6% | activity in the ERR/PGC assay [1]: antagonism | PGC/ERR-HEK293 Primary Efficacy [1]: −68.4 ± 7.64% | Percent inhibition of mRNA gene expression, IDH3α (IDH3α; 2 µM): 50.8% and 50.8 ± 8.69% | Percent inhibition of mRNA gene expression, Cytochrome C (cytochrome c; 2 µM): 47.6% and 47.6 ± 7.45% | activity in the Nrf2-ARE assay [2]: active agonists | Percent inhibition of mRNA gene expression, COX8α (COX8α; 2 µM): 17.1 ± 29.5% | PGC/ERR-HEK293 Follow-Up Viability EC50 ([3]; follow-up screen): Inactive | PGC/ERR-HEK293 Primary Viability EC50 ([3]; primary qHTS): Inactive | ERR-HEK293 Follow-Up Viability EC50 ([4]; follow-up screen, viability): Inactive | ERR-HEK293 Primary Viability EC50 ([4]; primary qHTS, viability counter screen): Inactive | Percent inhibition of mRNA gene expression, COX4I1 (COX4I1; 2 µM): 12.5% and 12.5 ± 2.60% | EC50 [5, 8]: 1600 ± 104 nM | EC50 [5, 9]: 1060 ± 122 nM | ERR-HEK293 Follow-Up Efficacy [5]: −104 ± 7.68% | ERR-HEK293 Primary Efficacy [5]: −90.9 ± 4.94% | ERR-HEK293 Primary Efficacy ([5]; listed as methodichlorophen): −90.9%

COc1cc(/C=C(\C#N)C(=O)Nc2nnc(C(F)(F)F)s2)ccc1OCc1ccc(C(F)(F)F)cc1C(F)(F)F [XCT790]
Percent inhibition of mRNA gene expression, IDH3α (IDH3α; 12 µM): 42.6 ± 6.59% | Percent inhibition of mRNA gene expression, Cytochrome C (cytochrome c; 12 µM): 60.8 ± 2.16% | Percent inhibition of mRNA gene expression, COX8α (COX8α; 12 µM, mean ± S.D.): 65.0 ± 8.41% | Percent inhibition of mRNA gene expression, PPARα (PPARα; 12 µM): 16.0 ± 1.70% | Percent inhibition of mRNA gene expression, COX4I1 (COX4I1; 12 µM): 46.0 ± 2.16%

CC(C)C[C@H](NC(=O)[C@H](CCc1ccccc1)NC(=O)CN1CCOCC1)C(=O)N[C@@H](Cc1ccccc1)C(=O)N[C@@H](CC(C)C)C(=O)[C@@]1(C)CO1 [Carfilzomib]
EC50 [1, 6]: 189 ± 39.6 nM | EC50 [1, 7]: 61.5 ± 19.8 nM | PGC/ERR-HEK293 Follow-Up Efficacy [1]: −150 ± 8.02% | activity in the ERR/PGC assay [1]: antagonism | PGC/ERR-HEK293 Primary Efficacy [1]: −121 ± 7.36% | Percent inhibition of mRNA gene expression, IDH3α (IDH3α; 60 nM): 1.73 ± 0.76% | Percent inhibition of mRNA gene expression, Cytochrome C (cytochrome c; 60 nM): 44.2% and 44.2 ± 0.70% | activity in the Nrf2-ARE assay [2]: active agonists | Percent inhibition of mRNA gene expression, COX8α (COX8α; 60 nM): 39.6% and 39.6 ± 1.81% | EC50 [3, 10]: 471 nM | EC50 [3, 11]: 1360 nM | EC50 [4, 12]: 274 nM | EC50 [4, 13]: 178 nM | Percent inhibition of mRNA gene expression, PPARα (PPARα; 60 nM): 7.39 ± 4.61% | Percent inhibition of mRNA gene expression, COX4I1 (COX4I1; 60 nM): 37.8 ± 5.12% | EC50 [5, 8]: 61.7 ± 7.86 nM | EC50 [5, 9]: 55.2 ± 3.74 nM | ERR-HEK293 Follow-Up Efficacy [5]: −126 ± 10.9% | EC50 ([5]; potency, ERR antagonist assay, primary screen): 55 nM | ERR-HEK293 Primary Efficacy [5]: −107% and −107 ± 2.77%

CC(C)C[C@H](NC(=O)[C@H](Cc1ccccc1)NC(=O)c1cnccn1)B(O)O [Bortezomib]
EC50 [1, 6]: 9.62 ± 4.52 nM | EC50 [1, 7]: 16.9 ± 5.54 nM | PGC/ERR-HEK293 Follow-Up Efficacy [1]: −116 ± 12.7% | activity in the ERR/PGC assay [1]: antagonism | PGC/ERR-HEK293 Primary Efficacy [1]: −92.2 ± 11.8% | Percent inhibition of mRNA gene expression, IDH3α (IDH3α; 20 µM): 17.6% and 17.6 ± 4.66% | Percent inhibition of mRNA gene expression, Cytochrome C (cytochrome c; 20 µM): 48.3% and 48.3 ± 1.92% | activity in the Nrf2-ARE assay [2]: active agonists | EC50 [3, 10]: 64.3 nM | EC50 [3, 11]: 62.8 nM | EC50 [4, 12]: 78 nM | EC50 [4, 13]: 65.6 nM | IC50 ([4]; Homo sapiens, HEK293, primary screen, concurrent with ERR antagonist assay): ~66 nM | Percent inhibition of mRNA gene expression, PPARα (PPARα; 20 µM): 14.0 ± 5.17% | Percent inhibition of mRNA gene expression, COX4I1 (COX4I1; 20 µM): 35.3 ± 3.49% | EC50 [5, 8]: 16.7 ± 6.08 nM | EC50 [5, 9]: 17 ± 7.81 nM | ERR-HEK293 Follow-Up Efficacy [5]: −125 ± 11.0%
